Measurements published in BindingDB's records for doi:10.1021/jm00016a009 (Purdue University, 1995).

Test: Effective concentration as Adenylate cyclase activity was measured in rat homogenate
For `CCc1ccc2c(c1)[C@@H]1c3cc(O)c(O)cc3CC[C@H]1NC2` [(6aR,12bS)-2-Ethyl-5,6,6a,7,8,12b-hexahydro-benzo[a]phenanthridine-10,11-diol], the EC50 was 0.61 µM. For `Oc1cc2c(cc1O)[C@H]1c3cc(-c4ccccc4)ccc3CN[C@@H]1CC2` [(6aR,12bS)-2-Phenyl-5,6,6a,7,8,12b-hexahydro-benzo[a]phenanthridine-10,11-diol], the EC50 was 0.01 µM. With `Cc1ccc2c(c1)CN[C@@H]1CCc3cc(O)c(O)cc3[C@@H]21` [(6aR,12bS)-3-Methyl-5,6,6a,7,8,12b-hexahydro-benzo[a]phenanthridine-10,11-diol] the EC50 was 0.134 µM. Molecule `CCCN1Cc2cc(C)ccc2[C@@H]2c3cc(O)c(O)cc3CC[C@H]21` [(6aR,12bS)-3-Methyl-6-propyl-5,6,6a,7,8,12b-hexahydro-benzo[a]phenanthridine-10,11-diol] has an EC50 of 0.01 µM. Molecule `Cc1cccc2c1CN[C@@H]1CCc3cc(O)c(O)cc3[C@@H]21` [(6aR,12bS)-4-Methyl-5,6,6a,7,8,12b-hexahydro-benzo[a]phenanthridine-10,11-diol] has an EC50 of 0.151 µM. With `Oc1ccc2c(c1)[C@@H]1c3cc(O)c(O)cc3CC[C@H]1NC2` [(6aR,12bS)-5,6,6a,7,8,12b-Hexahydro-benzo[a]phenanthridine-2,10,11-triol] the EC50 was 0.148 µM. `Oc1ccc2c(c1)CN[C@@H]1CCc3cc(O)c(O)cc3[C@@H]21` [(6aR,12bS)-5,6,6a,7,8,12b-Hexahydro-benzo[a]phenanthridine-3,10,11-triol] gave an EC50 of 0.13 µM.
